Data reported in article PMC6857671 (Chemical Science, 2019).

System: HeLa cells
Test: Confocal microscopic analysis of cellular location of DOX and 36
Type: cell-based
Details: 10 µM, 3 h, 37 °C, fluorescence confocal microscopy

## COc1cccc2c1C(=O)c1c(O)c3c(c(O)c1C2=O)C[C@@](O)(C(=O)CO)C[C@@H]3O[C@H]1C[C@H](N)[C@H](O)[C@H](C)O1 [DOX, Doxorubicin]
  cellular location of DOX fluorescence, no irradiation: efficiently transported to the nucleus
